In PubChem BioAssay (NCI):
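Assay format: 96-well plates, 48-hour exposure. The concentration for 50% growth inhibition is given as GI50. At the TGI there is no net growth.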

Tests used:
Assay in all cases: DTP human tumour cell line panel, 48 h
[1] = system: U251 CNS
[2] = system: EKVX NSCLC
[3] = system: MOLT-4 leukemia
[4] = system: KM12 colon
[5] = system: PC-3 prostate
[6] = system: NCI-H460 lung
[7] = system: SW-620 colon
[8] = system: HOP-62 NSCLC
[9] = system: ACHN renal
[10] = system: TK-10 renal
[11] = system: M14 melanoma
[12] = system: SK-OV-3 ovarian
[13] = system: HCT-15 colon
[14] = system: DU-145 prostate
[15] = system: SK-MEL-28 melanoma
[16] = system: SR leukemia
[17] = system: MDA-MB-435
[18] = system: HT29 colon
[19] = system: 786-0 renal
[20] = system: HL-60(TB) leukemia
[21] = system: RPMI-8226 leukemia
[22] = system: OVCAR-3 ovarian
[23] = system: CAKI-1 renal
[24] = system: SF-268 CNS
[25] = system: SF-295 CNS
[26] = system: MCF7 breast
[27] = system: NCI-H23 lung
[28] = system: SK-MEL-5 melanoma
[29] = system: UO-31 renal
[30] = system: MDA-MB-231 breast
[31] = system: SF-539 CNS
[32] = system: K-562 leukemia
[33] = system: OVCAR-8 ovarian
[34] = system: SK-MEL-2 melanoma
[35] = system: NCI-H226 lung
[36] = system: HS 578T breast
[37] = system: RXF 393 renal
[38] = system: NCI-H522 lung
[39] = system: HCT-116 colon
[40] = system: LOX IMVI melanoma
[41] = system: A498 renal
[42] = system: OVCAR-4 ovarian
[43] = system: HOP-92 NSCLC
[44] = system: CCRF-CEM leukemia
[45] = system: UACC-257 melanoma
[46] = system: OVCAR-5 ovarian
[47] = system: T-47D breast
[48] = system: IGROV1 ovarian
[49] = system: HCC-2998 colon
[50] = system: NCI/ADR-RES ovarian
[51] = system: A549 NSCLC
[52] = system: UACC-62 melanoma
[53] = system: SN12C renal
[54] = system: SNB-75 CNS
[55] = system: SNB-19 CNS
[56] = system: COLO 205 colon
[57] = system: MALME-3M melanoma
[58] = system: BT-549 breast

With `O=C1/C(=C/C=C/c2ccccc2)N=C(c2ccccc2)N1C1Nc2cc3c(cc2S1)NC(N1C(=O)/C(=C/C=C/c2ccccc2)N=C1c1ccccc1)S3` (stereo not given) the TGI [1] was > 100 µM, the TGI [2] was > 100 µM and the TGI [3] was 0.302 µM. The TGI [4] was > 100 µM, the TGI [5] was > 100 µM and the TGI [6] was > 100 µM. For the same molecule, the TGI [7] was > 100 µM, the TGI [8] was > 100 µM and the TGI [9] was > 100 µM. The TGI [10] was > 100 µM, the TGI [11] was > 100 µM and the TGI [12] was > 100 µM. For the same molecule, the TGI [13] was > 100 µM, the TGI [14] was > 100 µM and the TGI [15] was > 100 µM. The TGI [16] was 27.8 µM, the TGI [17] was > 100 µM and the TGI [18] was > 100 µM. For the same molecule, the TGI [19] was > 100 µM, the TGI [20] was > 100 µM and the TGI [21] was 57 µM. The TGI [22] was > 100 µM, the TGI [23] was > 100 µM and the TGI [24] was > 100 µM. The TGI [25] was > 100 µM, the TGI [26] was > 100 µM and the TGI [27] was > 100 µM. For the same molecule, the TGI [28] was > 100 µM, the TGI [29] was > 100 µM and the TGI [30] was > 100 µM. The TGI [31] was > 100 µM, the TGI [32] was > 100 µM and the TGI [33] was > 100 µM. The TGI [34] was > 100 µM, the TGI [35] was > 100 µM and the TGI [36] was > 100 µM. The TGI [37] was > 100 µM, the TGI [38] was 28.8 µM and the TGI [39] was > 100 µM. The TGI [40] was > 100 µM, the TGI [41] was > 100 µM and the TGI [42] was > 100 µM. The TGI [43] was 85.2 µM, the TGI [44] was > 100 µM and the TGI [45] was > 100 µM. For the same molecule, the TGI [46] was > 100 µM, the TGI [47] was > 100 µM and the TGI [48] was > 100 µM. The TGI [49] was 37.2 µM and the TGI [50] was > 100 µM.

Work on `Oc1ccc(-c2nnc3sc(-c4ccc(F)c(Oc5ccccc5)c4)nn23)cc1` yielded a GI50 [1] of 17.5 µM, a TGI [1] of 36.5 µM and a GI50 [2] of 34.8 µM. For the same molecule, the TGI [2] was > 100 µM, the GI50 [3] was 22.2 µM and the TGI [3] was > 100 µM. For the same molecule, the GI50 [51] was 30.9 µM, the TGI [51] was > 100 µM and the GI50 [4] was 45.7 µM. For the same molecule, the TGI [4] was > 100 µM, the GI50 [5] was 36.8 µM and the TGI [5] was > 100 µM. The GI50 [6] was 38.5 µM, the TGI [6] was > 100 µM and the GI50 [7] was 83 µM. For the same molecule, the TGI [7] was > 100 µM, the GI50 [8] was 21.2 µM and the TGI [8] was 42.7 µM. The GI50 [9] was 22.7 µM, the TGI [9] was 78.3 µM and the GI50 [10] was 29.6 µM. For the same molecule, the TGI [10] was 77 µM, the GI50 [11] was 43.6 µM and the TGI [11] was > 100 µM. The GI50 [12] was 44.6 µM, the TGI [12] was > 100 µM and the GI50 [13] was 91.2 µM. The TGI [13] was > 100 µM, the GI50 [14] was 35 µM and the TGI [14] was > 100 µM. For the same molecule, the GI50 [52] was 19.8 µM, the TGI [52] was 66.8 µM and the GI50 [15] was > 100 µM. The TGI [15] was > 100 µM, the GI50 [16] was 29.9 µM and the TGI [16] was > 100 µM. For the same molecule, the GI50 [17] was 68.6 µM, the TGI [17] was > 100 µM and the GI50 [18] was 27.4 µM. The TGI [18] was > 100 µM, the GI50 [19] was 21.8 µM and the TGI [19] was 50.3 µM. For the same molecule, the GI50 [20] was > 100 µM, the TGI [20] was > 100 µM and the GI50 [21] was 28.4 µM. For the same molecule, the TGI [21] was > 100 µM, the GI50 [22] was 28.8 µM and the TGI [22] was 76.4 µM. It also gave a GI50 [23] of 20.8 µM, a TGI [23] of 80.6 µM and a GI50 [24] of 18 µM. The TGI [24] was 53.2 µM, the GI50 [53] was 37.6 µM and the TGI [53] was > 100 µM. It also gave a GI50 [25] of 23.2 µM, a TGI [25] of 59.9 µM and a GI50 [26] of 14.6 µM. For the same molecule, the TGI [26] was > 100 µM, the GI50 [54] was 26.4 µM and the TGI [54] was 62.1 µM. The GI50 [27] was 29.3 µM, the TGI [27] was 92.2 µM and the GI50 [28] was 18.6 µM. The TGI [28] was > 100 µM, the GI50 [29] was 5.62 µM and the TGI [29] was > 100 µM. For the same molecule, the GI50 [30] was 16.4 µM, the TGI [30] was 47.4 µM and the GI50 [31] was 24.2 µM. For the same molecule, the TGI [31] was 65 µM, the GI50 [32] was > 100 µM and the TGI [32] was > 100 µM. The GI50 [33] was 28.3 µM, the TGI [33] was > 100 µM and the GI50 [34] was > 100 µM. The TGI [34] was > 100 µM, the GI50 [35] was 24.6 µM and the TGI [35] was 98.4 µM. It also gave a GI50 [36] of 19.8 µM, a TGI [36] of 51.4 µM and a GI50 [37] of 7.47 µM. The TGI [37] was 25.3 µM, the GI50 [38] was 72.5 µM and the TGI [38] was > 100 µM. For the same molecule, the GI50 [39] was 23.5 µM, the TGI [39] was > 100 µM and the GI50 [55] was 34.6 µM. For the same molecule, the TGI [55] was > 100 µM, the GI50 [56] was 96 µM and the TGI [56] was > 100 µM. The GI50 [40] was 36.7 µM, the TGI [40] was > 100 µM and the GI50 [42] was > 100 µM. The TGI [42] was > 100 µM, the GI50 [43] was 26.1 µM and the TGI [43] was > 100 µM. The GI50 [44] was > 100 µM, the TGI [44] was > 100 µM and the GI50 [45] was > 100 µM. For the same molecule, the TGI [45] was > 100 µM, the GI50 [46] was > 100 µM and the TGI [46] was > 100 µM. For the same molecule, the GI50 [47] was 16.4 µM, the TGI [47] was 76.3 µM and the GI50 [48] was 47.4 µM. For the same molecule, the TGI [48] was > 100 µM, the GI50 [49] was 73.2 µM and the TGI [49] was > 100 µM. The GI50 [57] was 44.4 µM, the TGI [57] was 98.7 µM and the GI50 [50] was 66.5 µM. For the same molecule, the TGI [50] was > 100 µM.

`CC(=O)O[C@H]1C(=O)[C@@]2(C)[C@H]([C@H](OC(=O)c3ccccc3)[C@]3(O)C[C@H](OC(=O)[C@H](OC(=O)OCCC(O)CO)[C@@H](NC(=O)c4ccccc4)c4ccccc4)C(C)=C1C3(C)C)[C@]1(OC(C)=O)CO[C@@H]1C[C@@H]2O` (stereo not given in full) was tested, and the TGI [1] was 19.2 µM, the TGI [2] was > 100 µM and the TGI [3] was 24.9 µM. For the same molecule, the TGI [51] was > 100 µM, the TGI [4] was 13.1 µM and the TGI [5] was > 100 µM. The TGI [6] was 19 µM, the TGI [7] was > 55.8 µM and the TGI [8] was 19.9 µM. For the same molecule, the TGI [9] was > 62.2 µM, the TGI [10] was > 44.6 µM and the TGI [12] was > 100 µM. The TGI [13] was > 35.4 µM, the TGI [52] was 20.1 µM and the TGI [18] was > 100 µM. The TGI [19] was 33 µM, the TGI [20] was < 0.01 µM and the TGI [22] was 14.5 µM. For the same molecule, the TGI [23] was 62.9 µM, the TGI [24] was > 56.9 µM and the TGI [53] was 33.6 µM. It also gave a TGI [25] of 0.187 µM, a TGI [26] of 14.1 µM and a TGI [54] of 1.28 µM. For the same molecule, the TGI [27] was > 37 µM, the TGI [28] was 0.613 µM and the TGI [29] was > 100 µM. For the same molecule, the TGI [30] was 21.6 µM, the TGI [31] was < 0.01 µM and the TGI [32] was 49.8 µM. For the same molecule, the TGI [33] was > 53 µM, the TGI [34] was > 100 µM and the TGI [35] was < 0.01 µM. For the same molecule, the TGI [37] was 18.5 µM, the TGI [38] was < 0.01 µM and the TGI [39] was 11.3 µM. The TGI [55] was > 100 µM, the TGI [40] was 22 µM and the TGI [41] was 28.9 µM. For the same molecule, the TGI [42] was > 100 µM, the TGI [58] was 19.1 µM and the TGI [43] was 61.6 µM. The TGI [44] was 12.2 µM, the TGI [45] was 23.3 µM and the TGI [46] was 43.5 µM. The TGI [48] was 34.7 µM, the TGI [49] was 0.0471 µM and the TGI [50] was > 43.4 µM.
